Test results reported in patent US20060292213A1, “Enoximone formulations and their use in the treatment of PDE-III mediated diseases” (Myogen, Inc., priority 2004, published 2006).
Converted amounts (≈) assume the structure as drawn. Like-named read-outs stand apart in the source and are kept apart here.

Legend:
[1] = tested on: spontaneously hypertensive rats; assay: Anti-hypertensive activity, cannulated conscious female spontaneously hypertensive rats (Example 1); type: in vivo, rat; settings: 45 and 60 minute time points, 100 mg/kg and 30 mg/kg groups; statistically significant
Method: Female spontaneously hypertensive rats were anesthetized and cannulated. The end of the cannula was exteriorized through the skin for measurement of arterial blood pressure. Approximately 30 minutes after the rats regained consciousness, the experiment began. Mean blood pressure and heart rate were recorded 15 minutes prior to drug administration, at the time of administration, and 15, 30, 45 and 60 minutes following administration. Drug was administered at a variety of dosages. A statistically significant decrease in blood pressure of ˜42% was measured at the 45 and 60 minute time points for the 100 mg/kg and 30 mg/kg groups.

[2] = tested on: spontaneously hypertensive rats; assay: Anti-hypertensive activity, spontaneously hypertensive rats, single dose (Example 2); type: in vivo, rat; settings: for blood pressure (mean arterial): vehicle 169+/−7.9
Method: Spontaneously hypertensive rats were divided into groups and treated with vehicle or a single dose of 10, 30 or 100 mg/kg of enoximone. Mean arterial blood pressure and heart rate were recorded before and at 15, 30, 45 and 60 minutes after treatment. Blood pressure decreased in all drug treatment groups.

anesthetized dogs = assay: Cardiorenal hemodynamics, i.v. infusion in anesthetized dogs (Example 3); type: in vivo, dog
Mongrel dogs = assay: Coronary blood flow, anesthetized mongrel dogs, electromagnetic flow probe (Example 5); type: in vivo, dog
Method: Mongrel dogs were anesthetized and given bolus injections of enoximone and coronary blood flow was measured using a Stratham electromagnetic flow probe, Model SP-7516-606-214, placed around the circumflex branch of the left coronary artery near its origin. The flow probe was connected to a Stratham Model SP2202 electromagnetic flow meter which was connected to a Grass Model 7P1 low level DC preamplifier. All recordings were made on a Grass Model 7B or […] polygraph.

perfused hindlimb = assay: Arteriolar resistance, pump perfused hindlimb preparation (Example 6); type: in vivo, dog
Excerpt: The pump perfused hindlimb preparation permits the in vivo determination of the direct vascular effects of a compound. Dogs were anesthetized and allowed to respire sponatenously. The branchial artery and vein were cannulated and a catheter was passed down the left carotid artery into the left ventricle. […]

[3] = tested on: subjects displaying chronic stable angina; assay: Double blind placebo controlled cross over trial in chronic stable angina (Example 7); type: in vivo, human; settings: single oral dose 75 mg
Method: A double blind placebo controlled cross over trial of enoximone was done with 20 subjects displaying chronic stable angina. Enoximone as a single oral dose (75 mg) was compared with placebo.

[4] = tested on: human platelet aggregation; assay: Human platelet aggregation in platelet rich plasma, aggregometer (Example 8); type: cell-based; settings: 5 min, PRP incubated 5 minutes at room temperature
Method: Substances which increase platelet cAMP levels are known to inhibit platelet aggregation. Blood was taken from human donors not on aspirin or taking any aspirin-containing substances (or other nonsteroidal anti-inflammatory drugs) for at least two weeks prior to donation. […] PRP was exposed only to plastic laboratory ware. All experiments were completed within 3 hours. PRP was incubated for 5 minutes at room temperature with enoximone prior to the addition of any aggregating agent. Aggregation was monitored by continuous recording of light transmittance in a Chrono-log dual-channel aggregometer (Chrono-log Corp.) in atotal volume of 0.5 ml PRP. Aggregating substances used were ADP (5 μM), collagen […] and arachidonic acid (2 μg/ml) (Chrono-log Corp.). Enoximone ([…]) inhibited platelet aggregation in a concentration dependent manner. […] It was also ruled out that enoximone was inhibiting aggregation by somehow inhibiting the metabolism of arachidonic acid as measured by HPLC and RIA.

normal human volunteers = assay: Renal function and plasma volume in normal human volunteers (Example 4); settings: single I.V. dose 2.5 mg/kg, then 200 mg t.i.d. for 5 days
men who suffer from ED = settings: ED of psychogenic or organic etiology; cited from earlier work
PDE-III = settings: cited from earlier work
[5] = tested on: patients with primary thrombocythemia and thrombocytosis; settings: used to lower platelet counts; cited from earlier work

In the case of `CSc1ccc(C(=O)c2[nH]c(=O)[nH]c2C)cc1` [Enoximone, 1,3-Dihydro-4-methyl-5-[4-(methylthio)benzoyl]-2H-imidazol-2-one], the “decrease in blood pressure” value [1] is reported as about 42%, the “blood pressure (mean arterial)” value ([2]; 45 minutes, 30 mg/kg, non-significant) is reported as 151+/−9 and the “blood pressure (mean arterial)” value ([2]; 60 minutes, 30 mg/kg, non-significant) is reported as 142+/−8. For the same molecule, the “blood pressure (mean arterial)” value ([2]; 60 minutes, 100 mg/kg, significant) was 100+/−9.7, the “blood pressure, change in words” value ([2]; all drug treatment groups (10, 30 or 100 mg/kg)) was “decreased” and the heart rates ([2]; all groups (10, 30 or 100 mg/kg)) was “unchanged”. For the same molecule, the blood pressure (anesthetized dogs; 30 μg/kg/min i.v. infusion) was “decreasing”, the cardiac contractile force (anesthetized dogs; 30 μg/kg/min i.v. infusion) was “increasing” and the glomerular filtration (anesthetized dogs; 100 μg/kg/min i.v. infusion) was “unchanged”. For the same molecule, the “increase in renal blood flow” value (anesthetized dogs; 100 μg/kg/min i.v. infusion) was 15-20%, the renal vascular resistance (anesthetized dogs; 100 μg/kg/min i.v. infusion) was “measurable decreases” and the “increase in coronary blood flow” value (Mongrel dogs; bolus injection 0.1 mg/kg) was 12+/−2%. For the same molecule, the “increase in coronary blood flow” value (Mongrel dogs; bolus injection 1 mg/kg) was 41+/−6%, the “decrease in hind limb perfusion pressure” value (perfused hindlimb; 0.3 mg/kg) was 11+/−2% and the “decrease in hind limb perfusion pressure” value (perfused hindlimb; 3 mg/kg) was 25+/−2%. The “total exercise duration, mean difference versus placebo” value ([3]; significantly longer than placebo) was 22.8 s, the “time to onset of angina and development of significant ST-segment decrease, versus placebo” value ([3]; trends in favor of enoximone) was “similar” and the IC50 ([4]; ADP (5 μM), read-out: IC50 for ADP induced aggregation) was 20.9 µg/mL (≈ 84.2 µM). The IC50 ([4]; arachidonic acid (2 μg/ml), read-out: IC50 for arachidonic acid induced aggregation) was 0.24 µg/mL (≈ 0.967 µM), the IC50 ([4]; collagen (1.0 mM), read-out: IC50 for collagen induced aggregation) was 36.3 µg/mL (≈ 146 µM) and the renal function (normal human volunteers) was “no impairment”.
For `CCCc1nn(C)c2c(=O)[nH]c(-c3cc(S(=O)(=O)N4CCN(C)CC4)ccc3OCC)nc12` [Sildenafil, 5-[2-ethoxy-5-(4-methylpiperazin-1-ylsulphonyl)phenyl]-1-methyl-3-n-propyl-6,7-dihydro-1H-pyrazolo[4,3-d]pyrimidin-7-one], the “men with improved sexual function” value (men who suffer from ED) is given as “about 70%” and the “inhibition of PDE-III” value (PDE-III) is given as “negligible inhibition”.
In the case of interferon-α, the “patients achieving a stable state of remission” value [5] is listed as “approximately 50%”.
